# According to the supplement of paper PMC10307832:
# Tests used:
# Test in all cases: relative viability (nuclei count vs DMSO), 5 days (fraction); higher = more cells survive
# [1] = compound: CC[C@H](Nc1ncnc2[nH]cnc12)c1nc2cccc(F)c2c(=O)n1-c1ccccc1 [Idelalisib] + CS(=O)(=O)CCNCc1ccc(-c2ccc3ncnc(Nc4ccc(OCc5cccc(F)c5)c(Cl)c4)c3c2)o1 [Lapatinib] (partner 2 µM)
# In short: (§1)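 The day after seeding in 1536-well plates, lung cancer cell lines were treated by pin tool with a single drug, or with a fixed anchor-drug dose together with five library-drug doses (not always all listed) in √10 steps. After 5 days, a combined fix-and-stain solution (final 0.05% Triton X-100, 1% formaldehyde, 1 ug/ml Hoechst) was added. Nuclei counted on 4× images gave relative viability as treated counts over vehicle counts, reported as the median of duplicate plates.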
# [2] = compound: Nc1nc2[nH]cc(CCc3ccc(C(=O)N[C@@H](CCC(=O)O)C(=O)O)cc3)c2c(=O)[nH]1 [Pemetrexed] + CS(=O)(=O)CCNCc1ccc(-c2ccc3ncnc(Nc4ccc(OCc5cccc(F)c5)c(Cl)c4)c3c2)o1 [Lapatinib] (partner 2 µM)
# In short: as §1
# [3] = compound: Nc1nc2[nH]cc(CCc3ccc(C(=O)N[C@@H](CCC(=O)O)C(=O)O)cc3)c2c(=O)[nH]1 [Pemetrexed] + C[C@]1(O)C[C@@H](c2nc(-c3ccc4ccc(-c5ccccc5)nc4c3)c3c(N)nccn32)C1 [Linsitinib] (partner 1 µM)
# In short: as §1
# [4] = compound: CC[C@H](Nc1ncnc2[nH]cnc12)c1nc2cccc(F)c2c(=O)n1-c1ccccc1 [Idelalisib] + O=C(CCCCCCC(=O)Nc1ccccc1)NO [Vorinostat] (partner 1 µM)
# In short: as §1
Cell Line,relative viability ([1]; first compound 0.04 µM),relative viability ([1]; first compound 0.1265 µM),relative viability ([1]; first compound 0.4 µM),relative viability ([1]; first compound 1.265 µM),relative viability ([1]; first compound 4 µM),relative viability ([2]; first compound 0.002 µM),relative viability ([2]; first compound 0.006325 µM),relative viability ([2]; first compound 0.02 µM),relative viability ([2]; first compound 0.06325 µM),relative viability ([2]; first compound 0.2 µM),relative viability ([3]; first compound 0.002 µM),relative viability ([3]; first compound 0.006325 µM),relative viability ([3]; first compound 0.02 µM),relative viability ([3]; first compound 0.06325 µM),relative viability ([3]; first compound 0.2 µM),relative viability ([4]; first compound 0.04 µM),relative viability ([4]; first compound 0.1265 µM),relative viability ([4]; first compound 0.4 µM),relative viability ([4]; first compound 1.265 µM),relative viability ([4]; first compound 4 µM)
EPLC-272H,0.951,1.04,0.705,0.901,0.84,0.806,1.04,1.16,0.972,1.04,1.06,1.07,1.19,0.959,1.12,0.422,0.405,0.431,0.292,0.452
LK-2,1.03,0.98,0.63,0.978,0.965,0.863,0.877,1.13,0.775,0.521,0.339,0.307,0.514,0.448,0.341,0.307,0.295,0.173,0.338,0.221
CAL-12T,0.672,0.7,0.616,0.471,0.501,0.549,0.678,0.615,0.774,0.59,0.776,0.744,0.932,0.996,0.782,0.831,0.689,0.65,0.704,0.648
NCI-H322M,0.612,0.62,0.521,0.53,0.502,0.642,0.531,0.657,0.551,0.618,0.967,0.778,1.06,0.938,0.809,1.03,0.993,0.799,0.899,0.911
NCI-H1650,0.888,0.806,0.762,0.775,0.561,0.804,0.699,0.8,0.505,0.349,–,–,–,–,–,0.513,0.604,0.58,0.587,0.614
NCI-H2342,–,–,–,–,–,–,–,–,–,–,–,–,–,–,–,0.801,0.736,0.689,0.664,0.736
SW 1573,1.17,1.06,0.913,1.12,1.27,1.12,1.11,1.19,1.07,1.12,0.794,0.761,0.7,0.752,0.837,0.907,0.629,0.7,0.556,0.49
NCI-H2405,1.16,1.07,0.897,1.14,1.04,1.13,1.05,1.14,1.04,1.07,1.01,0.913,1.03,0.894,0.975,1.2,1.05,0.908,1.04,1.06
LCLC-103H,–,–,–,–,–,–,–,–,–,–,1.07,1.03,1.14,1.16,0.992,0.864,0.926,0.664,0.798,0.58
HCC-44,1.02,1.01,1,1.07,1.14,0.928,1,1.03,1.02,0.874,0.598,0.625,0.73,0.665,0.536,1.19,1.08,1.12,1.22,1.12
